Source: US9757356B2 (CHONNAM NATIONAL UNIVERSITY HOSPITAL, priority 2015, dated 2017)

How the values were obtained:
[1] = system: cardiac fibroblasts (cFBs); assay: BrdU cell proliferation assay, cardiac fibroblasts in cardiomyocyte/cardiac fibroblast co-culture; type: cell-based, rat
Protocol: (§1) Hearts of two-day-old rats were removed and washed with physiological saline. Thereafter, left cardiac muscles were separated from the hearts in a sterilization cabinet, and microtomed into segments. These myocardial tissues were added to a collagenase enzyme solution, reacted at 37° C. while stirring, and then centrifuged to collect only the supernatant which were then kept in a cell culture flask. After an hour, cardiomyocytes which floated when the supernatant was transferred to a new culture flask were separated from cardiac fibroblasts attached to the bottom of the cell culture flask. At this point, both the cardiomyocytes and the cardiac fibroblasts were cultured in a Dulbecco's modified Eagle's medium (DMEM) supplemented with 10% fetal bovine serum (FBS) and then used for experiments.
(§2) After 2 days and 5 days, the proliferation of cells was quantified.
(§3) To determine the level of new DNA synthesis, a cell proliferation assay was performed by adding bromodeoxyuridine (BrdU) to a cell culture broth in advance to incorporate BrdU into DNAs of cells and performing a chromogenic reaction using an anti-BrdU antibody.
Then, cells which were not stained with cardiac troponin I but stained with DAPI were regarded as cardiac fibroblasts and then counted.

MI animal model [2] = assay: Myocardial fibrosis by Masson's trichrom staining in MI animal model; type: in vivo, rat; conditions: MI rats, MI+BIO vs MI+vehicle, FIG. 4
Protocol: (§4) To induce the onset of myocardial infarction, first of all, rats weighing 200 to 230 g were anesthetized with ketamine (50 mg/kg) and xylazine (5 mg/kg), and the chests of the rats were shaved and disinfected. An anesthesia ventilator was installed to manage the airway of the rat, and the chest was incised to expose the heart. Then, a cardiac muscle was sutured in a region of the left anterior descending artery (LAD) to block a blood flow, thereby establishing an MI animal model.
(§5) After two weeks, the rats were anesthetized, and subjected to echocardiography to examine the cardiac functions.
To quantify myocardial fibrosis, the heart tissues were also removed, fixed with formalin, embedded in a paraffin block, and then microtomed into sections having a thickness of 10 μm. Thereafter, the sections were histologically stained using a Masson's trichrom method.

cardiomyocytes (CMs) = assay: BrdU cell proliferation assay, cardiomyocytes in cardiomyocyte/cardiac fibroblast co-culture; type: cell-based, rat; conditions: BIO 2.5 μM and 5 μM, after 2 days and 5 days, FIG. 1
Protocol: as §1, §2, §3

MI animal model [3] = assay: Macrophage phenotype (CD68/Arg1 immunofluorescence) in cardiac muscle of MI animal model; type: in vivo, rat; conditions: MI rats, 2nd week after onset of myocardial infarction, FIG. 6
Protocol: Specifically, a slide for myocardial infarction heart tissues was treated with an anti-CD68 antibody and an anti-Arg1 antibody, and a fluorescence image was visualized using a secondary antibody. Then, the tissues were observed under a confocal microscope with a magnification of 800 times. Since the macrophages in the tissues expressed CD68, the macrophages were detected using the anti-CD68 antibody. Also, since a marker used to distinguish the characteristics of the macrophages in the tissues was iNOS in the case of the inflammatory M1 macrophages and arginase 1 (Arg1) in the case of the anti-inflammatory M2 macrophages, the macrophages were stained with an anti-inflammatory marker Arg1 for macrophages in order to determine how many the phenotype of the macrophages in the heart was converted into the M2 type at the 2nd week after the onset of myocardial infarction.

[4] = system: macrophage cell line RAW264.7; assay: iNOS expression in LPS-stimulated macrophages, Western blotting; type: cell-based, mouse; conditions: RAW264.7, LPS 100 ng/mL, BIO 0, 1, 2.5 and 5 μM, FIG. 5
Protocol: A mouse macrophage cell line RAW264.7 (Korean Cell Line Bank) was cultured in a DMEM broth supplemented with 10% fetal bovine serum, and lipopolysaccharide (LPS) was added at a concentration of 100 ng/mL to the culture broth to initiate inflammation of macrophages.

MI animal model [5] = assay: Echocardiography of cardiac function in MI animal model; type: in vivo, rat; conditions: MI rats, 0.2 mg/body weight intra-abdominally daily
Protocol: as §4, §5
In this case, the indices have the following meanings. • IVSd; thickness of interventricular septum (diastole) • IVSs; thickness of interventricular septum (systole) • LVIDd; thickness of left ventricular internal dimension (diastole) • LVIDs; thickness of left ventricular internal dimension (systole) • LVPWd; left ventricle posterior wall thickness (diastole) • LVPWs; left ventricle posterior wall thickness (systole) • EF; ejection fraction • FS; fractional shortening

GSK3β = molecular target: T1, GSK3β (Rattus norvegicus, UniProt P18266); assay: p-GSK3β expression in cardiac fibroblasts, Western blotting; type: cell-based; conditions: cardiac fibroblasts, 0, 0.25, 2.5 and 5 μM for 2 days, FIG. 7
T1 construct: endogenous in cells; host or cells: cardiac fibroblasts (primary culture)
T1 sequence (P18266 whole entry): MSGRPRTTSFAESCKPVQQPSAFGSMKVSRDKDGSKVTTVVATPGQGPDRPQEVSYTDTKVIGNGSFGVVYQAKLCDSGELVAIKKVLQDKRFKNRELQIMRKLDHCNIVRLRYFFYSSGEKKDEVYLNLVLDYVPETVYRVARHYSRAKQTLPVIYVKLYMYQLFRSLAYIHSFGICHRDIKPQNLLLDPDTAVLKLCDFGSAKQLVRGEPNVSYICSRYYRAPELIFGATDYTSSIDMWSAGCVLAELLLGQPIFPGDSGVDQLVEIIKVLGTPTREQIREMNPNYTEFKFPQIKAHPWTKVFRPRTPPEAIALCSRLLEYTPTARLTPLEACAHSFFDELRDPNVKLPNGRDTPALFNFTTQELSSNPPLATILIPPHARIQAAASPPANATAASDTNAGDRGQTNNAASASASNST
Protocol: Since GSK3β was in an inert state when phosphorylated, an increase in expression level of p-GSK3β was determined using Western blotting in order to evaluate the inhibition of GSK3β.

[6] = echocardiography after two weeks

O=C1Nc2cc(Br)ccc2/C1=C1/Nc2ccccc2/C1=N\O [BIO, (2′Z,3′E)-6-bromoindirubin-3′-oxime]
BrdU (+) cFB/total cFB, proliferation rate of dividing cardiac fibroblasts ([1]; co-culture, BIO 2.5 μM and 5 μM, FIG. 2): significantly decreased
fibrosis regions (blue), myocardial fibrosis (MI animal model [2]): significantly reduced
BrdU (+) CM/total CM, proliferation rate of dividing cardiomyocytes (cardiomyocytes (CMs)): significantly increased
Arg1-expressing (anti-inflammatory M2 type) macrophages in the cardiac muscles (MI animal model [3]): prevailed
expression of iNOS (inflammatory marker) [4]: lowered in a concentration-dependent manner
diastolic and systolic functions of the heart (MI animal model [5]; after two weeks, vs MI+saline): well preserved
EDV (MI animal model [5]; [6]): 1.563 ± 0.308
EF; ejection fraction (MI animal model [5]; [6]): 41.313 ± 6.823
ESV (MI animal model [5]; [6]): 0.911 ± 0.251
FS; fractional shortening (MI animal model [5]; [6]): 18.262 ± 3.525
IVSd; thickness of interventricular septum (diastole) (MI animal model [5]; [6]): 0.079 ± 0.013
IVSs; thickness of interventricular septum (systole) (MI animal model [5]; [6]): 0.084 ± 0.028
LVIDd; thickness of left ventricular internal dimension (diastole) (MI animal model [5]; [6]): 0.900 ± 0.066
LVIDs; thickness of left ventricular internal dimension (systole) (MI animal model [5]; [6]): 0.736 ± 0.074
LVPWd; left ventricle posterior wall thickness (diastole) (MI animal model [5]; [6]): 0.089 ± 0.023
LVPWs; left ventricle posterior wall thickness (systole) (MI animal model [5]; [6]): 0.115 ± 0.019
SV (MI animal model [5]; [6]): 0.651 ± 0.116

[Cl-].[Li+] [LiCl, reference compound]
inhibitory effect on the proliferation of the cardiac fibroblasts ([1]; BIO 5 μM and 10 μM vs LiCl, same manner as Example 3, FIG. 8): not observed
expression level of p-GSK3β (inert form), GSK3β inhibition (GSK3β): increased
